According to the NIST ThermoML archive (doi:10.1021/je201152j):
± gives the expanded uncertainty stated by the source.

How the values were obtained:
[1] = 298.15 K, 101.33 kPa, Liquid; for viscosity: Capillary tube (Ostwald / Ubbelohde) method; for speed of sound: Sing-around technique in a fixed-path interferometer; for mass density: Vibrating tube method
[2] = refractive index (Na D-line) (dimensionless); conditions: 298.15 K; 101.33 kPa; Liquid; Standard Abbe refractometry

Compound | viscosity [1] [mPa·s] | speed of sound [1] [m/s] | mass density [1] [kg/m3] | refractive index [2]
CN1CCCC1=O [N-methylpyrrolidone] | 1.681 ± 0.013 | 1545.2 ± 1.9 | 1028.3 ± 0.5 | 1.468 ± 0.0004
CCO [ethanol] | 1.091 ± 0.008 | 1144.2 ± 1.6 | 785.21 ± 0.42 | 1.3595 ± 0.0004
